Results reported in PubChem BioAssay (NCI).
“And” between values parts separate entries of the source, which are not always exact repeats. Equal values may be shown once.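 Interpolation was linear, between the two tested concentrations surrounding the appropriate level; five concentrations were tested over 48 hours in 96-well plates. At the GI50, growth is halved. The concentration for full growth arrest is given as TGI.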

Tested on: UACC-257 melanoma
Assay: DTP human tumour cell line panel, 48 h

First: CC1CC(O)C(=O)C(O[C@@H]2C[C@@H]3CC[C@@H]4[C@H](CC[C@]5(C)C(C6=CC(=O)OC6)CC[C@]45O)[C@@]3(C=O)C[C@H]2O)O1 (some centres not stated)
Second: CCCC(=O)C1=C(O)C(Cc2c(O)c(C)c(O)c(C(=O)CCC)c2O)=C(O)C(C)(C)C1=O
The TGI of the first is lower: 0.418 µM for the first, > 50 µM for the second.

Tested on: SN12C renal
Assay: DTP human tumour cell line panel, 48 h

In the case of `COC(=O)C1=COC(C)C2CN3CCc4c([nH]c5ccccc45)C3CC12` (configuration not stated), the GI50 is reported as 17.9 µM and > 100 µM.

For `COC(=O)C1=COC(C)C2CN3CCc4c([nH]c5ccccc45)C3CC12` (configuration not stated), the TGI was 38 µM and > 100 µM.

Compared with `O=C(NCc1ccc(Cn2c(=O)sn(-c3ccccc3)c2=O)cc1)OCc1ccc2cccc(O)c2n1`, `COc1ccc(-c2nn(-c3cccc(Cl)c3)cc2-c2cc(-c3ccccc3)[nH]c(=O)c2C#N)cc1` is 8.8-fold higher in GI50: 0.907 µM for the first, 7.94 µM for the second.

First: Nc1cc2c(cc1Br)[nH]c(=O)c1ccccc12
Second: COC(=O)c1cc2c(o1)-c1nccc3c1c(nc1ccccc13)C2=O
The GI50 of the first is 1.5-fold lower: 2.68 µM for the first, 4.04 µM for the second.

Going from `COc1ccc(-c2nccn2-c2ccc(OC)cc2)cc1` to `COc1ccc(-c2cnnn2-c2nonc2-n2cccc2)cc1`, the GI50 falls from 20.8 µM to 0.595 µM (35-fold).

Going from `COc1cc2c(/C=N\N=C(N)N)c[nH]c2cc1C` to `O=C(Nc1cc(Nc2ncccc2-c2ncnc3nc[nH]c23)ccc1F)c1cc(C(F)(F)F)cc(C(F)(F)F)c1`, the GI50 falls from 11.2 µM to 2.73 µM (4.1-fold).

Compared with `CC(C)[C@H](O)C(=O)N[C@@H](C)C(=O)N[C@@H]1C(=O)N(C)CCc2ccccc21`, `O=C1c2ccccc2-c2c1c1ccccc1c(=O)n2CCN1CCNCC1` is lower in GI50: > 100 µM for the first, 2.21 µM for the second.

Going from `C=CC(=O)N1CN(C(=O)C=C)CN(C(=O)C=C)C1` to `ClC(Cl)=C1C(=C(Cl)Cl)C(Cl)(Cl)C1(Cl)Cl`, the GI50 falls from 20.7 µM to 0.774 µM (27-fold).

Going from `O=C(NCc1ccc(Cn2c(=O)sn(-c3ccccc3)c2=O)cc1)OCc1ccc2cccc(O)c2n1` to `COc1ccc(-c2nn(-c3cccc(Cl)c3)cc2-c2cc(-c3ccccc3)[nH]c(=O)c2C#N)cc1`, the TGI rises from 2.24 µM to > 50 µM.

First: COC(c1ccc(C(C)(C)C)cc1)(c1ccc(C(C)(C)C)cc1)c1ccc(C(C)(C)C)cc1
Second: COc1ccc(-c2nccn2-c2ccc(OC)cc2)cc1
The TGI of the first is higher: > 100 µM for the first, 50.3 µM for the second.

`CCC(C)(O)c1cnc(CC(C)C)c(=O)n1O` (configuration not stated) and `CC(C)[C@H](O)C(=O)N[C@@H](C)C(=O)N[C@@H]1C(=O)N(C)CCc2ccccc21` cannot be ordered by TGI: > 100 µM for the first, > 100 µM for the second.

`Nc1cc2c(cc1Br)[nH]c(=O)c1ccccc12` and `COC(=O)c1cc2c(o1)-c1nccc3c1c(nc1ccccc13)C2=O` are within 1.5-fold of each other in TGI: 13.8 µM for the first, 18.1 µM for the second.

`O=C(/C=C/c1ccccc1)c1ccccc1` and `O=C1c2ccccc2-c2c1c1ccccc1c(=O)n2CCN1CCNCC1` cannot be ordered by TGI: > 10 µM for the first, 18.1 µM for the second.

First: COc1cc2c(/C=N\N=C(N)N)c[nH]c2cc1C
Second: COc1ccc(C(=O)c2cc(OC)c(OC)c(OC)c2)cc1OC
The TGI of the first is lower: 37.5 µM for the first, > 100 µM for the second.

Going from `C=CC(=O)N1CN(C(=O)C=C)CN(C(=O)C=C)C1` to `CO[C@H]1Nc2c(ccc(C)c2O)C(=O)N2C=C(/C=C/C(N)=O)C[C@@H]12`, the TGI falls from 51.6 µM to 1.05 µM (49-fold).

`COc1ccc(-c2cnnn2-c2nonc2-n2cccc2)cc1` and `O=C(Nc1cc(Nc2ncccc2-c2ncnc3nc[nH]c23)ccc1F)c1cc(C(F)(F)F)cc(C(F)(F)F)c1` cannot be ordered by TGI: > 100 µM for the first, > 10 µM for the second.

Compared with `ClC(Cl)=C1C(=C(Cl)Cl)C(Cl)(Cl)C1(Cl)Cl`, `CCCC(=O)C1=C(O)C(Cc2c(O)c(C)c(O)c(C(=O)CCC)c2O)=C(O)C(C)(C)C1=O` is higher in TGI: 2.13 µM for the first, > 50 µM for the second.

`CN(C)CCNCCN` was tested, and the TGI was > 100 µM.

Tested on: CAKI-1 renal
Assay: DTP human tumour cell line panel, 48 h

First: O=C(O)c1cccc(COc2ccc([N+](=O)[O-])cc2Cl)c1
Second: COC(=O)c1cc2c(o1)-c1nccc3c1c(nc1ccccc13)C2=O
The GI50 of the first is higher: > 100 µM for the first, 9.48 µM for the second.

Compared with `O=C(NCc1ccc(Cn2c(=O)sn(-c3ccccc3)c2=O)cc1)OCc1ccc2cccc(O)c2n1`, `COc1ccc(-c2nn(-c3cccc(Cl)c3)cc2-c2cc(-c3ccccc3)[nH]c(=O)c2C#N)cc1` is 2.7-fold higher in GI50: 0.479 µM for the first, 1.3 µM for the second.

Going from `Nc1cc2c(cc1Br)[nH]c(=O)c1ccccc12` to `O=C1c2ccccc2-c2c1c1ccccc1c(=O)n2CCN1CCNCC1`, the GI50 falls from 5.39 µM to 0.465 µM (12-fold).

Going from `COc1ccc(-c2nccn2-c2ccc(OC)cc2)cc1` to `COc1ccc(-c2cnnn2-c2nonc2-n2cccc2)cc1`, the GI50 falls from 22.9 µM to 0.245 µM (93-fold).

Going from `COc1cc2c(/C=N\N=C(N)N)c[nH]c2cc1C` to `CCCc1cc(=O)n2c(C(=O)Nc3ccc(Cl)cc3C)c(C(=O)Nc3ccc(F)cc3)sc2n1`, the GI50 falls from 37.5 µM to 7.77 µM (4.8-fold).

Compared with `CC(C)[C@H](O)C(=O)N[C@@H](C)C(=O)N[C@@H]1C(=O)N(C)CCc2ccccc21`, `C=CC(=O)N1CN(C(=O)C=C)CN(C(=O)C=C)C1` is lower in GI50: > 100 µM for the first, 1.63 µM for the second.

Going from `O=C(O)c1cccc(COc2ccc([N+](=O)[O-])cc2Cl)c1` to `COC(=O)c1cc2c(o1)-c1nccc3c1c(nc1ccccc13)C2=O`, the TGI falls from > 100 µM to 32.3 µM.

First: O=C(NCc1ccc(Cn2c(=O)sn(-c3ccccc3)c2=O)cc1)OCc1ccc2cccc(O)c2n1
Second: COc1ccc(-c2nn(-c3cccc(Cl)c3)cc2-c2cc(-c3ccccc3)[nH]c(=O)c2C#N)cc1
The TGI of the first is 3.3-fold lower: 1.84 µM for the first, 6.09 µM for the second.

`COC(c1ccc(C(C)(C)C)cc1)(c1ccc(C(C)(C)C)cc1)c1ccc(C(C)(C)C)cc1` and `COc1ccc(-c2nccn2-c2ccc(OC)cc2)cc1` cannot be ordered by TGI: > 100 µM for the first, > 69.5 µM for the second.

`CCC(C)(O)c1cnc(CC(C)C)c(=O)n1O` (configuration not stated) and `CC(C)[C@H](O)C(=O)N[C@@H](C)C(=O)N[C@@H]1C(=O)N(C)CCc2ccccc21` cannot be ordered by TGI: > 100 µM for the first, > 100 µM for the second.

First: Nc1cc2c(cc1Br)[nH]c(=O)c1ccccc12
Second: O=C1c2ccccc2-c2c1c1ccccc1c(=O)n2CCN1CCNCC1
The TGI of the first is 18-fold higher: 53.4 µM for the first, 2.9 µM for the second.

`O=C(/C=C/c1ccccc1)c1ccccc1` and `COc1ccc(-c2cnnn2-c2nonc2-n2cccc2)cc1` cannot be ordered by TGI: > 10 µM for the first, > 67.1 µM for the second.

Going from `COc1cc2c(/C=N\N=C(N)N)c[nH]c2cc1C` to `CO[C@H]1Nc2c(ccc(C)c2O)C(=O)N2C=C(/C=C/C(N)=O)C[C@@H]12`, the TGI falls from > 100 µM to 0.211 µM.

First: C=CC(=O)N1CN(C(=O)C=C)CN(C(=O)C=C)C1
Second: CCCc1cc(=O)n2c(C(=O)Nc3ccc(Cl)cc3C)c(C(=O)Nc3ccc(F)cc3)sc2n1
The TGI of the first is 11-fold lower: 3.7 µM for the first, 42.3 µM for the second.

Compared with `ClC(Cl)=C1C(=C(Cl)Cl)C(Cl)(Cl)C1(Cl)Cl`, `CC1CC(O)C(=O)C(O[C@@H]2C[C@@H]3CC[C@@H]4[C@H](CC[C@]5(C)C(C6=CC(=O)OC6)CC[C@]45O)[C@@]3(C=O)C[C@H]2O)O1` (some centres not stated) is 140-fold lower in TGI: 8.14 µM for the first, 0.0597 µM for the second.

`CN(C)CCNCCN` and `CCCC(=O)C1=C(O)C(Cc2c(O)c(C)c(O)c(C(=O)CCC)c2O)=C(O)C(C)(C)C1=O` cannot be ordered by TGI: > 100 µM for the first, > 50 µM for the second.

With `COC(=O)C1=COC(C)C2CN3CCc4c([nH]c5ccccc45)C3CC12` (configuration not stated) the GI50 was 21.2 µM and > 100 µM.

For `COC(=O)C1=COC(C)C2CN3CCc4c([nH]c5ccccc45)C3CC12` (configuration not stated), the TGI was 85.6 µM and > 100 µM.

Tested on: SF-539 CNS
Assay: DTP human tumour cell line panel, 48 h

`COC(=O)C1=COC(C)C2CN3CCc4c([nH]c5ccccc45)C3CC12` (configuration not stated) was tested, and the GI50 was 22.4 µM and > 100 µM.

In the case of `COC(=O)C1=COC(C)C2CN3CCc4c([nH]c5ccccc45)C3CC12` (configuration not stated), the TGI is reported as 59.5 µM and > 100 µM.

Going from `O=C(NCc1ccc(Cn2c(=O)sn(-c3ccccc3)c2=O)cc1)OCc1ccc2cccc(O)c2n1` to `COc1ccc(-c2nccn2-c2ccc(OC)cc2)cc1`, the GI50 rises from 1.05 µM to 28 µM (27-fold).

Going from `Nc1cc2c(cc1Br)[nH]c(=O)c1ccccc12` to `COc1ccc(-c2cnnn2-c2nonc2-n2cccc2)cc1`, the GI50 falls from 15.1 µM to 0.321 µM (47-fold).

Going from `CC(C)[C@H](O)C(=O)N[C@@H](C)C(=O)N[C@@H]1C(=O)N(C)CCc2ccccc21` to `C=CC(=O)N1CN(C(=O)C=C)CN(C(=O)C=C)C1`, the GI50 falls from > 100 µM to 2.98 µM.

First: O=C(NCc1ccc(Cn2c(=O)sn(-c3ccccc3)c2=O)cc1)OCc1ccc2cccc(O)c2n1
Second: COc1ccc(-c2nccn2-c2ccc(OC)cc2)cc1
The TGI of the first is 39-fold lower: 2.3 µM for the first, 90.4 µM for the second.

Compared with `COC(c1ccc(C(C)(C)C)cc1)(c1ccc(C(C)(C)C)cc1)c1ccc(C(C)(C)C)cc1`, `COc1ccc(-c2cnnn2-c2nonc2-n2cccc2)cc1` is lower in TGI: > 100 µM for the first, 4 µM for the second.

`Nc1cc2c(cc1Br)[nH]c(=O)c1ccccc12` and `O=C(/C=C/c1ccccc1)c1ccccc1` cannot be ordered by TGI: 49.3 µM for the first, > 10 µM for the second.

First: CC(C)[C@H](O)C(=O)N[C@@H](C)C(=O)N[C@@H]1C(=O)N(C)CCc2ccccc21
Second: CO[C@H]1Nc2c(ccc(C)c2O)C(=O)N2C=C(/C=C/C(N)=O)C[C@@H]12
The TGI of the first is higher: > 100 µM for the first, 0.0384 µM for the second.

Compared with `C=CC(=O)N1CN(C(=O)C=C)CN(C(=O)C=C)C1`, `ClC(Cl)=C1C(=C(Cl)Cl)C(Cl)(Cl)C1(Cl)Cl` is 7.9-fold lower in TGI: 48.3 µM for the first, 6.08 µM for the second.
